Results: US20250170132A1, “SALTS AND POLYMORPHIC FORMS OF MENIN INHIBITORS AND PHARMACEUTICAL COMPOSITIONS THEREOF” (Syndax Pharmaceuticals, Inc., priority 2023, published 2025)

Key:
Assay type in all cases: physicochemical
[1] = Approximate solubility estimation in 24 solvents; settings: thermodynamic from solid
Protocol: About 10 mg of Compound A monocitrate monohydrate was weighed into a 4.0 mL vial and 25 μL of solvent was added at RT. The solution was shaken and stirred. If no clear solution was obtained, another 25 μL was added and this was repeated until 4.0 mL solvent is added.

[2] = Polymorph screen: anti-solvent addition
Protocol: (§1) X-ray powder diffraction (XRPD) • Instrument: Panalytical Empyrean • Parameters: X-Ray tube Cu (Kα radiation); Power: 45 kV×40 mA • Scanning range: 2 to 40 2θ (degree) • Step size: 0.01 degree • Scanning speed: 6.33 degree (20) per minute Thermogravimetric analysis (TGA) • Instrument: TA Instruments Discovery TGA • Parameters: Ramp 10° C. per minute, 25 to 300° C., 50 mL/min N2 sweep Differential scanning calorimetry (DSC) • Instrument: TA Instruments Discovery DSC • Parameters: Ramp 10° C. per minute, up to 300° C. Polarized light microscopy (PLM) • Instrument: Nikon Eclipse Ci POL • Camera: Nikon DS-Fi3 • Software: Nikon NIS Elements
Experiments using 10 different techniques including using techniques such as anti-solvent addition, solid vapor diffusion, liquid vapor diffusion, slurry (at RT and 50° C.), slow evaporation, polymer induced crystallization, thermal cycling, sonication, and wet grinding.
Obtained solids were tested by XRPD (Table 30).

[3] = Polymorph screen: solid vapor diffusion
Protocol: as §1
Solid vapor diffusion—About 30 mg API was transferred into 4 mL vials which are placed in 20 mL glass vials containing different solvents. The solids were tested by XRPD after 7-10 days (Table 31).

[4] = Polymorph screen: slow evaporation; settings: Diethylamine, 50° C.
Protocol: as §1
The vials were covered with paraffin film with 3-5 holes and placed at specified temperature for evaporation. The obtained solids were characterized by XRPD (Table 35).

[5] = Solution stability studies at accelerated conditions, counterion adduct (Impurity A); settings: solution stability at accelerated conditions
Text: Compound A monocitrate monohydrate has at least two advantageously and unexpected characteristics. […] Second, in the manufacturing process, Compound A fumarate requires a separate slurrying step which results in a solvate with an organic solvent. Compound A monocitrate monohydrate salt is isolated directly from ethanol:water, no slurrying step is required. […] Additionally, the Compound A monocitrate forms a monohydrate instead of a solvate with one or more organic molecules.
Although this degradation pathway is more accelerated in solution it was also observed in the solid API. Formation of Impurity A was the reason why Compound A sesquifumarate API and drug product were stored at refrigerated temperatures.

SMILES: CCN(C(=O)c1cc(F)ccc1Oc1cncnc1N1CC2(CCN(C[C@H]3CC[C@H](NS(=O)(=O)CC)CC3)CC2)C1)C(C)C [Compound A monocitrate monohydrate]
- solubility ([1]; aqueous with cosolvent or surfactant or cyclodextrin, 1,4-dioxane/water (7/3), heated for few seconds using heat gun): 84 to 105 mg/mL
- solubility ([1]; aqueous with cosolvent or surfactant or cyclodextrin, 1-PrOH/water (1/1), heated for few seconds using heat gun): 161 to 242 mg/mL
- solubility ([1]; aqueous with cosolvent or surfactant or cyclodextrin, Acetone/H2O (9:1 v/v), RT): 15 to 17.5 mg/mL
- solubility ([1]; aqueous with cosolvent or surfactant or cyclodextrin, MeOH/water (7/3), heated for few seconds using heat gun): 93 to 186 mg/mL
- solubility ([1]; aqueous with cosolvent or surfactant or cyclodextrin, THF/water (1/1), heated for few seconds using heat gun): 141 to 212 mg/mL
- solubility ([1]; organic solvent or mixture, 2-MeTHF, RT): < 2.9 mg/mL
- solubility ([1]; organic solvent or mixture, Anisole, RT): < 3 mg/mL
- solubility ([1]; organic solvent or mixture, Benzene, RT): < 2.9 mg/mL
- solubility ([1]; organic solvent or mixture, CPME, RT): < 2.1 mg/mL
- solubility ([1]; organic solvent or mixture, Chloroform, RT): < 2.3 mg/mL
- solubility ([1]; organic solvent or mixture, Cyclohexane, RT): < 2.3 mg/mL
- solubility ([1]; organic solvent or mixture, DMA, RT): 81 to 162 mg/mL
- solubility ([1]; organic solvent or mixture, DMF, RT): 80 to 160 mg/mL
- solubility ([1]; organic solvent or mixture, Diethylamine, RT): 170 to 340 mg/mL
- solubility ([1]; organic solvent or mixture, Diisopropyl ether, RT): < 2.3 mg/mL
- solubility ([1]; organic solvent or mixture, Dimethoxyethane (DME), RT): < 2.4 mg/mL
- solubility ([1]; organic solvent or mixture, EtOAc, RT): < 2.3 mg/mL
- solubility ([1]; organic solvent or mixture, Heptane, RT): < 2.8 mg/mL
- solubility ([1]; organic solvent or mixture, IPA, RT): < 2.8 mg/mL
- solubility ([1]; organic solvent or mixture, MEK, RT): < 2.4 mg/mL
- solubility ([1]; organic solvent or mixture, MTBE, RT): < 2.8 mg/mL
- solubility ([1]; organic solvent or mixture, NMP, RT): 120 to 240 mg/mL
- solubility ([1]; organic solvent or mixture, Propylene glycol, heated for few seconds using heat gun): 22.2 to 27.8 mg/mL
- solubility ([1]; organic solvent or mixture, THF, RT): < 2 mg/mL
- Crystal Form ([2]; solvent DMA, antisolvent CPME): Form A
- Crystal Form ([2]; solvent DMA, antisolvent EtOAc): Form A
- Crystal Form ([2]; solvent DMA, antisolvent Toluene): Form A
- Crystal Form ([2]; solvent DMSO, antisolvent Benzene, *Loss of crystallinity): Form A*
- Crystal Form ([2]; solvent NMP, antisolvent IPAc): Form A
- Crystal Form ([3]; solid vapor diffusion, 1,4-dioxane, RT): Form A
- Crystal Form ([3]; solid vapor diffusion, 2-Methyl THF, RT): Form A
- Crystal Form ([3]; solid vapor diffusion, CHCl3, RT): Form A
- Crystal Form ([3]; solid vapor diffusion, CPME, 40° C.): Form A
- Crystal Form ([3]; solid vapor diffusion, DCM, RT): Form A
- Crystal Form ([3]; solid vapor diffusion, Dimethoxyethane, 40° C.): Form A
- Crystal Form ([3]; solid vapor diffusion, IPAc, RT): Form A
- Crystal Form ([3]; solid vapor diffusion, MEK, RT): Form A
- Crystal Form ([3]; solid vapor diffusion, MTBE, RT): Form A
- Crystal Form ([3]; solid vapor diffusion, THF, RT): Form A
- Crystal Form ([3]; solid vapor diffusion, Toluene, 40° C.): Form A
- Crystal Form [4]: FB-2
- Degradation by reaction of counterion with the pyrimidine ring [5]: absence of this type of degradation
